{"source": "patent US11292796B2", "about": "(SIGNAL PHARMACEUTICALS, LLC, priority 2008, dated 2022)", "data": [{"biological_target": "T1, mTOR (Homo sapiens, UniProt P42345)", "T1 construct": "purchased Invitrogen PR8683A", "T1 sequence (P42345 1360-2549 limits assumed)": "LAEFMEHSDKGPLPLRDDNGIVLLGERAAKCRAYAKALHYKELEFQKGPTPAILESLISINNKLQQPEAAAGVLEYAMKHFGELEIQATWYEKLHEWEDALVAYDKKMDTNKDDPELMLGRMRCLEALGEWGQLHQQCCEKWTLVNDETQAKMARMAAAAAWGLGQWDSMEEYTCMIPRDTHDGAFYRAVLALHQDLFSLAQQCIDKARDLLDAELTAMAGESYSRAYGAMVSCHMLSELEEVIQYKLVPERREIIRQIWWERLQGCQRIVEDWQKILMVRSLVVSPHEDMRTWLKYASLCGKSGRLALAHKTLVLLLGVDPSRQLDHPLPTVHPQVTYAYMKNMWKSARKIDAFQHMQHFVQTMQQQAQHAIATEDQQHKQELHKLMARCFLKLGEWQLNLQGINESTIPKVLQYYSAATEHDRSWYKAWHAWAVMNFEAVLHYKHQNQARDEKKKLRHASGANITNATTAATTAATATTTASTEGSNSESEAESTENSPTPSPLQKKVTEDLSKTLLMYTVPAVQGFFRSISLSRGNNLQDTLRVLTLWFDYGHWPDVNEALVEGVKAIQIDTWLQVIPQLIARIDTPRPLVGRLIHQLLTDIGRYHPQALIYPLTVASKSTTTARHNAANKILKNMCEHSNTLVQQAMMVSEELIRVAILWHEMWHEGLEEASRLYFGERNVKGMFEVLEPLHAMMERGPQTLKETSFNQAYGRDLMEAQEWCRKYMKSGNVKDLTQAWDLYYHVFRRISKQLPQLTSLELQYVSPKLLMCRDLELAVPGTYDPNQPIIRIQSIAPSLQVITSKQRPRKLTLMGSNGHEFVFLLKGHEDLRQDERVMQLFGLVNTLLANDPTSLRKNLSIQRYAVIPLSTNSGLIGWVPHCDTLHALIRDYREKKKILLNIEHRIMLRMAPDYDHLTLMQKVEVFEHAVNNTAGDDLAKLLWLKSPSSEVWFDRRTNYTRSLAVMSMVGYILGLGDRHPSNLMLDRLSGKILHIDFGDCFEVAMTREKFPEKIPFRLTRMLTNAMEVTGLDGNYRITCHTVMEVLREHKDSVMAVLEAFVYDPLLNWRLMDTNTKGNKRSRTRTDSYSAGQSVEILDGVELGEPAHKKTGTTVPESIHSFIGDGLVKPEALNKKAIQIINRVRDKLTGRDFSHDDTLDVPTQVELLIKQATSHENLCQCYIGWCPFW", "test": "mTOR HTR-FRET assay", "assay_type": "biochemical", "details": "read-out: Act. Level (IC50 in mTor HTR-FRET assay)", "procedure": "The following is an example of an assay that can be used to determine the mTOR inhibitory activity of a test compound. Heteroaryl Compounds were dissolved in DMSO and prepared as 10 mM stocks and diluted appropriately for the experiments. Reagents were prepared as follows:\n“Simple TOR buffer” (used to dilute high glycerol TOR fraction): 10 mM Tris pH 7.4, 100 mM NaCl, 0.1% Tween-20, 1 mM DTT. Invitrogen mTOR (cat #PR8683A) was diluted in this buffer to an assay concentration of 0.200 μg/mL.\nTo 20 μL of the Simple mTor buffer is added 0.5 μL of test compound in DMSO. To initiate the reaction 5 μL of ATP/Substrate solution was added to 20 μL of the Simple TOR buffer solution (control) and to the compound solution prepared above.", "units": {"IC50": "nM"}, "values": [{"compound": "CO[C@H]1CC[C@H](N2CC(=O)Nc3ncc(-c4ccc(-c5nc[nH]n5)c(F)c4C)nc32)CC1", "note": "[Example 29, 6-(3-fluoro-2-methyl-4-(1H-1,2,4-triazol-3-yl)phenyl)-4-(trans-4-methoxycyclohexyl)-3,4-dihydropyrazino[2,3-b]pyrazin-2(1H)-one]", "IC50": "0.005 to 250"}, {"compound": "Cc1cc(-c2nnc[nH]2)ccc1-c1cnc2c(n1)N(CCC1CCOCC1)C(C)(C)C(=O)N2", "note": "[Example 84, 3,3-dimethyl-6-(2-methyl-4-(4H-1,2,4-triazol-3-yl)phenyl)-4-(2-(tetrahydro-2H-pyran-4-yl)ethyl)-3,4-dihydropyrazino[2,3-b]pyrazin-2(1H)-one]", "IC50": "0.005 to 250"}, {"compound": "CO[C@H]1CC[C@@H](CN2C(=O)CNc3ncc(-c4ccc(-c5nc[nH]n5)nc4)nc32)CC1", "note": "[Example 155, 7-(6-(1H-1,2,4-triazol-3-yl)pyridin-3-yl)-1-((cis-4-methoxycyclohexyl)methyl)-3,4-dihydropyrazino[2,3-b]pyrazin-2(1H)-one]", "IC50": "0.005 to 250"}, {"compound": "CO[C@H]1CC[C@@H](N2C(=O)CNc3ncc(-c4ccc(-c5nc[nH]n5)nc4)nc32)CC1", "note": "[Example 151, 7-(6-(1H-1,2,4-triazol-3-yl)pyridin-3-yl)-1-(cis-4-methoxycyclohexyl)-3,4-dihydropyrazino[2,3-b]pyrazin-2(1H)-one]", "IC50": "0.005 to 250"}, {"compound": "CO[C@H]1CC[C@@H](CN2CC(=O)Nc3ncc(-c4ccc(C(C)(C)O)nc4)nc32)C1", "note": "[Example 57, 6-(6-(2-hydroxypropan-2-yl)pyridin-3-yl)-4-(((1R,3S)-3-methoxycyclopentyl)methyl)-3,4-dihydropyrazino[2,3-b]pyrazin-2(1H)-one]", "IC50": "0.005 to 250"}, {"compound": "COCCN1c2nc(-c3ccc(-c4nnc[nH]4)cc3C)cnc2NC(=O)C1(C)C", "note": "[Example 71, 4-(2-methoxyethyl)-3,3-dimethyl-6-(2-methyl-4-(4H-1,2,4-triazol-3-yl)phenyl)-3,4-dihydropyrazino[2,3-b]pyrazin-2(1H)-one]", "IC50": "0.005 to 250"}, {"compound": "Cc1cc(-c2nnc[nH]2)ccc1-c1cnc2c(n1)N1CCOCC1C(=O)N2", "note": "(centres unmarked) [Example 138, 9-(4-(4H-1,2,4-triazol-3-yl)-2-methylphenyl)-6,11,4a-trihydromorpholino[4,3-e]pyrazino[2,3-b]pyrazin-5-one]", "IC50": "0.005 to 250"}, {"compound": "CC(C)(O)c1ccc(-c2cnc3c(n2)N([C@H]2CC[C@@H](O)CC2)CC(=O)N3)cn1", "note": "[Example 102, 4-(cis-4-hydroxycyclohexyl)-6-(6-(2-hydroxypropan-2-yl)pyridin-3-yl)-3,4-dihydropyrazino[2,3-b]pyrazin-2(1H)-one]", "IC50": "250 to 500"}, {"compound": "CC(C)(O)c1ccc(-c2cnc3c(n2)N(Cc2cccc(C(F)(F)F)c2)C(=O)CN3)cn1", "note": "[Example 258, 7-(6-(2-hydroxypropan-2-yl)pyridin-3-yl)-1-(3-(trifluoromethyl)benzyl)-3,4-dihydropyrazino[2,3-b]pyrazin-2(1H)-one]", "IC50": "0.005 to 250"}, {"compound": "Cc1cc(-c2nnc[nH]2)ccc1-c1cnc2c(n1)N1CCCCC1C(=O)N2", "note": "(centres unmarked) [Example 120, 9-(4-(4H-1,2,4-triazol-3-yl)-2-methylphenyl)-6,11,4a-trihydropiperidino[1,2-e]pyrazino[2,3-b]pyrazin-5-one]", "IC50": "0.005 to 250"}, {"compound": "CNc1ccc(-c2cnc3c(n2)N(CCC2CCOCC2)C(=O)CN3)cn1", "note": "[Example 184, 7-(6-(methylamino)pyridin-3-yl)-1-(2-(tetrahydro-2H-pyran-4-yl)ethyl)-3,4-dihydropyrazino[2,3-b]pyrazin-2(1H)-one]", "IC50": "0.005 to 250"}, {"compound": "CC(C)(O)c1ccc(-c2cnc3c(n2)N(CC2CCOC2)CC(=O)N3)cn1", "note": "(centres unmarked) [Example 103, 6-(6-(2-hydroxypropan-2-yl)pyridin-3-yl)-4-((tetrahydrofuran-3-yl)methyl)-3,4-dihydropyrazino[2,3-b]pyrazin-2(1H)-one]", "IC50": "500 to 1000"}, {"compound": "COCCCN1C(=O)CNc2ncc(-c3ccc(C(C)(C)O)nc3)nc21", "note": "[Example 259, 7-(6-(2-hydroxypropan-2-yl)pyridin-3-yl)-1-(3-methoxypropyl)-3,4-dihydropyrazino[2,3-b]pyrazin-2(1H)-one]", "IC50": "0.005 to 250"}, {"compound": "CC(C)(O)c1ccc(-c2cnc3c(n2)N(CC2CCOCC2)CC(=O)N3)cc1", "note": "[Example 90, 6-(4-(2-hydroxypropan-2-yl)phenyl)-4-((tetrahydro-2H-pyran-4-yl)methyl)-3,4-dihydropyrazino[2,3-b]pyrazin-2(1H)-one]", "IC50": "0.005 to 250"}, {"compound": "C[C@H](O)c1ccc(-c2cnc3c(n2)N(CCC2CCOCC2)CC(=O)N3)cn1", "note": "[Example 83, (S)-6-(6-(1-hydroxyethyl)pyridin-3-yl)-4-(2-(tetrahydro-2H-pyran-4-yl)ethyl)-3,4-dihydropyrazino[2,3-b]pyrazin-2(1H)-one]", "IC50": "250 to 500"}, {"compound": "Cc1cc(-c2nc[nH]n2)ncc1-c1cnc2c(n1)N(C(C)C)C(=O)CN2", "note": "[Example 179, 1-isopropyl-7-(4-methyl-6-(1H-1,2,4-triazol-3-yl)pyridin-3-yl)-3,4-dihydropyrazino[2,3-b]pyrazin-2(1H)-one]", "IC50": "0.005 to 250"}, {"compound": "Cc1cc(-c2nnc[nH]2)ccc1-c1cnc2c(n1)N(Cc1ccccc1)C(=O)CN2", "note": "[Example 241, 1-benzyl-7-(2-methyl-4-(4H-1,2,4-triazol-3-yl)phenyl)-3,4-dihydropyrazino[2,3-b]pyrazin-2(1H)-one]", "IC50": "0.005 to 250"}, {"compound": "CO[C@H]1CC[C@@H](N2CC(=O)Nc3ncc(-c4ccc(C#N)nc4C)nc32)CC1", "note": "[Example 94, 5-(8-(cis-4-methoxycyclohexyl)-6-oxo-5,6,7,8-tetrahydropyrazino[2,3-b]pyrazin-2-yl)-6-methylpicolinonitrile]", "IC50": "1000 to 10000"}, {"compound": "COCCN1C(=O)CNc2ncc(-c3ccc(-c4nnc[nH]4)c(F)c3)nc21", "note": "[Example 242, 7-(3-fluoro-4-(4H-1,2,4-triazol-3-yl)phenyl)-1-(2-methoxyethyl)-3,4-dihydropyrazino[2,3-b]pyrazin-2(1H)-one]", "IC50": "0.005 to 250"}, {"compound": "CO[C@H]1CC[C@H](N2CC(=O)Nc3ncc(-c4ccc(C(C)(C)O)nc4)nc32)C1", "note": "[Example 55, 6-(6-(2-hydroxypropan-2-yl)pyridin-3-yl)-4-((1S,3S)-3-methoxycyclopentyl)-3,4-dihydropyrazino[2,3-b]pyrazin-2(1H)-one]", "IC50": "1000 to 10000"}, {"compound": "O=C1CNc2ncc(-c3ccc4cc[nH]c4c3)nc2N1CCC1CCOCC1", "note": "[Example 232, 7-(1H-indol-6-yl)-1-(2-(tetrahydro-2H-pyran-4-yl)ethyl)-3,4-dihydropyrazino[2,3-b]pyrazin-2(1H)-one]", "IC50": "250 to 500"}, {"compound": "Cc1cc(-c2nc[nH]n2)c(F)cc1-c1cnc2c(n1)N([C@H]1CC[C@H](O)CC1)C(=O)CN2", "note": "[Example 174, 7-(5-fluoro-2-methyl-4-(1H-1,2,4-triazol-3-yl)phenyl)-1-(trans-4-hydroxycyclohexyl)-3,4-dihydropyrazino[2,3-b]pyrazin-2(1H)-one]", "IC50": "0.005 to 250"}, {"compound": "Cc1nc(-c2nnc[nH]2)ccc1-c1cnc2c(n1)N(CCC1CCOCC1)C(C)(C)C(=O)N2", "note": "[Example 80, 3,3-dimethyl-6-(2-methyl-6-(4H-1,2,4-triazol-3-yl)pyridin-3-yl)-4-(2-(tetrahydro-2H-pyran-4-yl)ethyl)-3,4-dihydropyrazino[2,3-b]pyrazin-2(1H)-one]", "IC50": "0.005 to 250"}, {"compound": "O=C1CNc2ncc(-c3ccc4[nH]ncc4c3)nc2N1CCC1CCOCC1", "note": "[Example 223, 7-(1H-indazol-5-yl)-1-(2-(tetrahydro-2H-pyran-4-yl)ethyl)-3,4-dihydropyrazino[2,3-b]pyrazin-2(1H)-one]", "IC50": "500 to 1000"}, {"compound": "CC(C)(O)c1ccc(-c2cnc3c(n2)N([C@@H]2CCOC2)CC(=O)N3)cn1", "note": "[Example 129, (R)-6-(6-(2-hydroxypropan-2-yl)pyridin-3-yl)-4-(tetrahydrofuran-3-yl)-3,4-dihydropyrazino[2,3-b]pyrazin-2(1H)-one]", "IC50": "500 to 1000"}, {"compound": "O=C1CNc2ncc(-c3cccnc3)nc2N1CCC1CCOCC1", "note": "[Example 187, 7-(pyridin-3-yl)-1-(2-(tetrahydro-2H-pyran-4-yl)ethyl)-3,4-dihydropyrazino[2,3-b]pyrazin-2(1H)-one]", "IC50": "500 to 1000"}, {"compound": "COCCN1CC(=O)Nc2ncc(-c3ccc(-c4nnc[nH]4)c(F)c3C)nc21", "note": "[Example 49, 6-(3-fluoro-2-methyl-4-(4H-1,2,4-triazol-3-yl)phenyl)-4-(2-methoxyethyl)-3,4-dihydropyrazino[2,3-b]pyrazin-2(1H)-one]", "IC50": "0.005 to 250"}, {"compound": "CO[C@H]1CC[C@H](N2C(=O)CNc3ncc(-c4ccc(C(C)(C)O)nc4)nc32)C1", "note": "[Example 210, 7-(6-(2-hydroxypropan-2-yl)pyridin-3-yl)-1-((1S,3S)-3-methoxycyclopentyl)-3,4-dihydropyrazino[2,3-b]pyrazin-2(1H)-one]", "IC50": "0.005 to 250"}, {"compound": "Cc1cc(-c2nnc[nH]2)ncc1-c1cnc2c(n1)N(CC1CCOCC1)C(C)(C)C(=O)N2", "note": "[Example 50, 3,3-dimethyl-6-(4-methyl-6-(4H-1,2,4-triazol-3-yl)pyridin-3-yl)-4-((tetrahydro-2H-pyran-4-yl)methyl)-3,4-dihydropyrazino[2,3-b]pyrazin-2(1H)-one]", "IC50": "0.005 to 250"}, {"compound": "O=C1CNc2ncc(-c3ccc4cn[nH]c4c3)nc2N1CCC1CCOCC1", "note": "[Example 212, 7-(1H-indazol-6-yl)-1-(2-(tetrahydro-2H-pyran-4-yl)ethyl)-3,4-dihydropyrazino[2,3-b]pyrazin-2(1H)-one]", "IC50": "0.005 to 250"}, {"compound": "CO[C@H]1CC[C@H](N2C(=O)CNc3ncc(-c4ccc(-c5nc[nH]n5)nc4)nc32)CC1", "note": "[Example 171, 7-(6-(1H-1,2,4-triazol-3-yl)pyridin-3-yl)-1-(trans-4-methoxycyclohexyl)-3,4-dihydropyrazino[2,3-b]pyrazin-2(1H)-one]", "IC50": "0.005 to 250"}, {"compound": "O=C1CNc2ncc(-c3c[nH]c4ncccc34)nc2N1CCC1CCOCC1", "note": "[Example 152, 7-(1H-pyrrolo[2,3-b]pyridin-3-yl)-1-(2-(tetrahydro-2H-pyran-4-yl)ethyl)-3,4-dihydropyrazino[2,3-b]pyrazin-2(1H)-one]", "IC50": "0.005 to 250"}]}]}
